Organism: Rattus norvegicus
Assay: DrugMatrix - Regimen: Daily Repeat
Assay type: toxicity, organism-based, Sprague-Dawley
Parameters: regimen Daily Repeat, gender Male, age 6-8 weeks
Details: in vivo, po, route oral GAVAGE, vehicle 100 % WATER; for CREATININE / GLUCOSE / LACTATE DEHYDROGENASE / LIPASE / PHOSPHORUS / POTASSIUM / SODIUM / TOTAL BILIRUBIN / TOTAL PROTEIN / URIC ACID / ALANINE AMINOTRANSFERASE / ALBUMIN / ALKALINE PHOSPHATASE / ASPARTATE AMINOTRANSFERASE / BLOOD UREA NITROGEN / CARBON DIOXIDE / CHLORIDE / CHOLESTEROL / CREATINE PHOSPHOKINASE: tissue Plasma; for ABSOLUTE BASOPHIL / ABSOLUTE EOSINOPHIL / ABSOLUTE LYMPHOCYTE / ABSOLUTE MONOCYTE / ABSOLUTE SEGMENTED NEUTROPHIL / BASOPHIL / EOSINOPHIL / ERYTHROCYTE COUNT / HEMATOCRIT / HEMOGLOBIN / LEUKOCYTE COUNT / LYMPHOCYTE / MEAN CORPUSCULAR HEMOGLOBIN / MEAN CORPUSCULAR HEMOGLOBIN CONCENTRATION / MEAN CORPUSCULAR VOLUME / MONOCYTE / NEUTROPHIL / NUCLEATED RED BLOOD CELLS / PLATELET COUNT: tissue Blood
[1] = 25 mg/kg, 120 h, dose level Low, time 5 day
[2] = 54 mg/kg, 72 h, dose level High, time 3 day
[3] = 54 mg/kg, 120 h, dose level High, time 5 day
[4] = 80 mg/kg, 72 h, dose level High, time 3 day
[5] = 80 mg/kg, 120 h, dose level High, time 5 day

Structure (SMILES): CCC1(c2ccccc2)C(=O)NC(=O)NC1=O [PHENOBARBITAL]
- CREATININE [1]: 0.15 mg/dL
- GLUCOSE [1]: 135.67 mg/dL
- LACTATE DEHYDROGENASE [1]: 131 u/L
- LIPASE [1]: 9.33 u/L
- PHOSPHORUS [1]: 11 mg/dL
- POTASSIUM [1]: 6.37 MEQ/L
- SODIUM [1]: 145.53 MEQ/L
- TOTAL BILIRUBIN [1]: 0.17 mg/dL
- TOTAL PROTEIN [1]: 6.23 G/DL
- URIC ACID [1]: 0.7 mg/dL
- ABSOLUTE BASOPHIL [2]: 0 CELLS/uL
- ABSOLUTE EOSINOPHIL [2]: 0 CELLS/uL
- ABSOLUTE LYMPHOCYTE [2]: 6613.67 CELLS/uL
- ABSOLUTE MONOCYTE [2]: 76.67 CELLS/uL
- ABSOLUTE SEGMENTED NEUTROPHIL [2]: 1009.67 CELLS/uL
- BASOPHIL [2]: 0%
- EOSINOPHIL [2]: 0%
- ERYTHROCYTE COUNT [2]: 5.6 x10E6/uL
- HEMATOCRIT [2]: 34.33%
- HEMOGLOBIN [2]: 13.17 G/DL
- LEUKOCYTE COUNT [2]: 7.7 x10E3/uL
- LYMPHOCYTE [2]: 86%
- MEAN CORPUSCULAR HEMOGLOBIN [2]: 23.53 pg
- MEAN CORPUSCULAR HEMOGLOBIN CONCENTRATION [2]: 38.37 G/DL
- MEAN CORPUSCULAR VOLUME [2]: 61.37 fL
- MONOCYTE [2]: 1%
- NEUTROPHIL [2]: 13%
- NUCLEATED RED BLOOD CELLS [2]: 0 /100WBC
- PLATELET COUNT [2]: 1130.67 x10E3/uL
- ALANINE AMINOTRANSFERASE [2]: 66.33 u/L
- ALBUMIN [2]: 3.9 G/DL
- ALKALINE PHOSPHATASE [2]: 296.33 u/L
- ASPARTATE AMINOTRANSFERASE [2]: 99.33 u/L
- BLOOD UREA NITROGEN [2]: 16.33 mg/dL
- CARBON DIOXIDE [2]: 35.67 mmol/L
- CHLORIDE [2]: 98.5 MEQ/L
- CHOLESTEROL [2]: 85.67 mg/dL
- CREATINE PHOSPHOKINASE [2]: 643 u/L
- CREATININE [2]: 0.14 mg/dL
- GLUCOSE [2]: 132.33 mg/dL
- LACTATE DEHYDROGENASE [2]: 152.67 u/L
- LIPASE [2]: 11 u/L
- PHOSPHORUS [2]: 10.93 mg/dL
- POTASSIUM [2]: 5.81 MEQ/L
- SODIUM [2]: 144.8 MEQ/L
- TOTAL BILIRUBIN [2]: 0.2 mg/dL
- TOTAL PROTEIN [2]: 5.87 G/DL
- URIC ACID [2]: 0.63 mg/dL
- ABSOLUTE BASOPHIL [3]: 0 CELLS/uL
- ABSOLUTE EOSINOPHIL [3]: 0 CELLS/uL
- ABSOLUTE LYMPHOCYTE [3]: 8394.67 CELLS/uL
- ABSOLUTE MONOCYTE [3]: 27.33 CELLS/uL
- ABSOLUTE SEGMENTED NEUTROPHIL [3]: 1011.33 CELLS/uL
- BASOPHIL [3]: 0%
- EOSINOPHIL [3]: 0%
- ERYTHROCYTE COUNT [3]: 5.14 x10E6/uL
- HEMATOCRIT [3]: 32.97%
- HEMOGLOBIN [3]: 12.8 G/DL
- LEUKOCYTE COUNT [3]: 9.43 x10E3/uL
- LYMPHOCYTE [3]: 89.33%
- MEAN CORPUSCULAR HEMOGLOBIN [3]: 24.87 pg
- MEAN CORPUSCULAR HEMOGLOBIN CONCENTRATION [3]: 38.83 G/DL
- MEAN CORPUSCULAR VOLUME [3]: 64.1 fL
- MONOCYTE [3]: 0.33%
- NEUTROPHIL [3]: 10.33%
- NUCLEATED RED BLOOD CELLS [3]: 0 /100WBC
- PLATELET COUNT [3]: 1251 x10E3/uL
- ALANINE AMINOTRANSFERASE [3]: 51 u/L
- ALBUMIN [3]: 4.2 G/DL
- ALKALINE PHOSPHATASE [3]: 333.33 u/L
- ASPARTATE AMINOTRANSFERASE [3]: 88.33 u/L
- BLOOD UREA NITROGEN [3]: 18.33 mg/dL
- CARBON DIOXIDE [3]: 32.67 mmol/L
- CHLORIDE [3]: 100.67 MEQ/L
- CHOLESTEROL [3]: 84 mg/dL
- CREATINE PHOSPHOKINASE [3]: 245.33 u/L
- CREATININE [3]: 0.16 mg/dL
- GLUCOSE [3]: 134.67 mg/dL
- LACTATE DEHYDROGENASE [3]: 129.33 u/L
- LIPASE [3]: 9.67 u/L
- PHOSPHORUS [3]: 10.53 mg/dL
- POTASSIUM [3]: 6.17 MEQ/L
- SODIUM [3]: 145.07 MEQ/L
- TOTAL BILIRUBIN [3]: 0.2 mg/dL
- TOTAL PROTEIN [3]: 6.4 G/DL
- URIC ACID [3]: 0.8 mg/dL
- BASOPHIL [4]: 0.45%
- EOSINOPHIL [4]: 0.45%
- ERYTHROCYTE COUNT [4]: 7.21 x10E6/uL
- HEMATOCRIT [4]: 44%
- HEMOGLOBIN [4]: 13.8 G/DL
- LEUKOCYTE COUNT [4]: 13.79 x10E3/uL
- LYMPHOCYTE [4]: 79.7%
- MEAN CORPUSCULAR HEMOGLOBIN [4]: 19.15 pg
- MEAN CORPUSCULAR HEMOGLOBIN CONCENTRATION [4]: 31.35 G/DL
- MEAN CORPUSCULAR VOLUME [4]: 61.05 fL
- MONOCYTE [4]: 2.35%
- NEUTROPHIL [4]: 15.8%
- PLATELET COUNT [4]: 1419.5 x10E3/uL
- ALANINE AMINOTRANSFERASE [4]: 37.33 u/L
- ALBUMIN [4]: 3.43 G/DL
- ALKALINE PHOSPHATASE [4]: 281 u/L
- ASPARTATE AMINOTRANSFERASE [4]: 57 u/L
- BLOOD UREA NITROGEN [4]: 12.33 mg/dL
- CHLORIDE [4]: 103 MEQ/L
- CHOLESTEROL [4]: 84.33 mg/dL
- CREATINE PHOSPHOKINASE [4]: 205.33 u/L
- CREATININE [4]: 0.37 mg/dL
- GLUCOSE [4]: 185 mg/dL
- PHOSPHORUS [4]: 13.43 mg/dL
- POTASSIUM [4]: 6.63 MEQ/L
- SODIUM [4]: 147 MEQ/L
- TOTAL BILIRUBIN [4]: 0.43 mg/dL
- TOTAL PROTEIN [4]: 5.8 G/DL
- BASOPHIL [5]: 0.43%
- EOSINOPHIL [5]: 0.4%
- ERYTHROCYTE COUNT [5]: 6.51 x10E6/uL
- HEMATOCRIT [5]: 40.63%
- HEMOGLOBIN [5]: 13.03 G/DL
- LEUKOCYTE COUNT [5]: 13 x10E3/uL
- LYMPHOCYTE [5]: 81.9%
- MEAN CORPUSCULAR HEMOGLOBIN [5]: 20.1 pg
- MEAN CORPUSCULAR HEMOGLOBIN CONCENTRATION [5]: 32.13 G/DL
- MEAN CORPUSCULAR VOLUME [5]: 62.43 fL
- MONOCYTE [5]: 2.6%
- NEUTROPHIL [5]: 13.63%
- PLATELET COUNT [5]: 1415.67 x10E3/uL
- ALANINE AMINOTRANSFERASE [5]: 40.33 u/L
- ALBUMIN [5]: 3.43 G/DL
- ALKALINE PHOSPHATASE [5]: 257 u/L
- ASPARTATE AMINOTRANSFERASE [5]: 54 u/L
- BLOOD UREA NITROGEN [5]: 12 mg/dL
- CHLORIDE [5]: 103.67 MEQ/L
- CHOLESTEROL [5]: 104 mg/dL
- CREATINE PHOSPHOKINASE [5]: 162.67 u/L
- CREATININE [5]: 0.37 mg/dL
- GLUCOSE [5]: 183.67 mg/dL
- PHOSPHORUS [5]: 12.7 mg/dL
- POTASSIUM [5]: 6.67 MEQ/L
- SODIUM [5]: 145.67 MEQ/L
- TOTAL BILIRUBIN [5]: 0.33 mg/dL
- TOTAL PROTEIN [5]: 5.87 G/DL

— ChEMBL document CHEMBL3885881, “DrugMatrix”
